Converted amounts (≈) assume the structure as drawn.
Experiments:
Escherichia coli = test: Antibacterial activity against enterotoxigenic Escherichia coli by disc diffusion method; assay type: functional
Salmonella typhi [1] = test: Ratio of norfloxacin MIC to compound MIC against Salmonella typhi; assay type: functional, Salmonella enterica subsp. enterica serovar Typhi
Staphylococcus aureus = test: Antibacterial activity against Staphylococcus aureus by disc diffusion method; assay type: functional
Salmonella typhi [2] = test: Antibacterial activity against Salmonella typhi by disc diffusion method; assay type: functional, Salmonella enterica subsp. enterica serovar Typhi; details: Salmonella enterica
Pseudomonas aeruginosa = test: Antibacterial activity against Pseudomonas aeruginosa by disc diffusion method; assay type: functional

## CCn1cc(C(=O)NN)c(=O)c2cc(F)ccc21
Escherichia coli
  MIC: 0.125 µg/mL (≈ 0.502 µM)
Salmonella typhi [1]
  Ratio: 4
Staphylococcus aureus
  MIC: 0.0625 µg/mL (≈ 0.251 µM)
Salmonella typhi [2]
  MIC: 0.0625 µg/mL (≈ 0.251 µM)
Pseudomonas aeruginosa
  MIC: 0.0625 µg/mL (≈ 0.251 µM)

## CCn1cc(C(=O)NNS(=O)(=O)c2ccc(C)cc2)c(=O)c2ccccc21
Escherichia coli
  MIC: 0.125 µg/mL (≈ 0.324 µM)
Salmonella typhi [1]
  Ratio: 4
Staphylococcus aureus
  MIC: 0.0625 µg/mL (≈ 0.162 µM)
Salmonella typhi [2]
  MIC: 0.0625 µg/mL (≈ 0.162 µM)
Pseudomonas aeruginosa
  MIC: 0.0625 µg/mL (≈ 0.162 µM)

## CCn1cc(C(=O)NNS(=O)(=O)c2ccc(C)cc2)c(=O)c2cc(Cl)ccc21
Escherichia coli
  MIC: 0.0625 µg/mL (≈ 0.149 µM)
Salmonella typhi [1]
  Ratio: 4
Staphylococcus aureus
  MIC: 0.0625 µg/mL (≈ 0.149 µM)
Salmonella typhi [2]
  MIC: 0.0625 µg/mL (≈ 0.149 µM)
Pseudomonas aeruginosa
  MIC: 0.0625 µg/mL (≈ 0.149 µM)

## CCn1cc(C(=O)NN)c(=O)c2cc(Cl)ccc21
Escherichia coli
  MIC: 0.25 µg/mL (≈ 0.941 µM)
Salmonella typhi [1]
  Ratio: 4
Staphylococcus aureus
  MIC: 0.0625 µg/mL (≈ 0.235 µM)
Salmonella typhi [2]
  MIC: 0.0625 µg/mL (≈ 0.235 µM)
Pseudomonas aeruginosa
  MIC: 0.0625 µg/mL (≈ 0.235 µM)

## CCn1cc(C(=O)O)c(=O)c2cc(F)c(N3CCNCC3)cc21 [NORFLOXACIN]
Escherichia coli
  MIC: 0.0625 µg/mL (≈ 0.196 µM)
Staphylococcus aureus
  MIC: 0.0625 µg/mL (≈ 0.196 µM)
Salmonella typhi [2]
  MIC: 0.25 µg/mL (≈ 0.783 µM)
Pseudomonas aeruginosa
  MIC: 0.0625 µg/mL (≈ 0.196 µM)

## CCn1cc(C(=O)NN)c(=O)c2ccccc21
Escherichia coli
  MIC: 0.0625 µg/mL (≈ 0.27 µM)
Salmonella typhi [1]
  Ratio: 4
Staphylococcus aureus
  MIC: 0.0625 µg/mL (≈ 0.27 µM)
Salmonella typhi [2]
  MIC: 0.0625 µg/mL (≈ 0.27 µM)
Pseudomonas aeruginosa
  MIC: 0.0625 µg/mL (≈ 0.27 µM)

## CCn1cc(C(=O)NN)c(=O)c2cc(F)c(Cl)cc21
Escherichia coli
  MIC: 0.0625 µg/mL (≈ 0.22 µM)
Salmonella typhi [1]
  Ratio: 4
Staphylococcus aureus
  MIC: 0.0625 µg/mL (≈ 0.22 µM)
Salmonella typhi [2]
  MIC: 0.0625 µg/mL (≈ 0.22 µM)
Pseudomonas aeruginosa
  MIC: 0.0625 µg/mL (≈ 0.22 µM)

## CCn1cc(C(=O)NNS(=O)(=O)c2ccc(C)cc2)c(=O)c2cc(F)ccc21
Escherichia coli
  MIC: 0.0625 µg/mL (≈ 0.155 µM)
Salmonella typhi [1]
  Ratio: 4
Staphylococcus aureus
  MIC: 0.0625 µg/mL (≈ 0.155 µM)
Salmonella typhi [2]
  MIC: 0.0625 µg/mL (≈ 0.155 µM)
Pseudomonas aeruginosa
  MIC: 0.0625 µg/mL (≈ 0.155 µM)

## CCn1cc(C(=O)NN)c(=O)c2ccc(Cl)cc21
Escherichia coli
  MIC: 0.0625 µg/mL (≈ 0.235 µM)
Salmonella typhi [1]
  Ratio: 4
Staphylococcus aureus
  MIC: 0.0625 µg/mL (≈ 0.235 µM)
Salmonella typhi [2]
  MIC: 0.0625 µg/mL (≈ 0.235 µM)
Pseudomonas aeruginosa
  MIC: 0.0625 µg/mL (≈ 0.235 µM)

## O=C(O)c1cn(C2CC2)c2cc(N3CCNCC3)c(F)cc2c1=O [CIPROFLOXACIN]
Escherichia coli
  MIC: 0.0625 µg/mL (≈ 0.189 µM)
Staphylococcus aureus
  MIC: 0.0625 µg/mL (≈ 0.189 µM)
Salmonella typhi [2]
  MIC: 0.0625 µg/mL (≈ 0.189 µM)
Pseudomonas aeruginosa
  MIC: 0.0625 µg/mL (≈ 0.189 µM)

## CCn1cc(C(=O)NNS(=O)(=O)c2ccc(C)cc2)c(=O)c2ccc(Cl)cc21
Escherichia coli
  MIC: 0.0625 µg/mL (≈ 0.149 µM)
Salmonella typhi [1]
  Ratio: 2
Staphylococcus aureus
  MIC: 0.0625 µg/mL (≈ 0.149 µM)
Salmonella typhi [2]
  MIC: 0.125 µg/mL (≈ 0.298 µM)
Pseudomonas aeruginosa
  MIC: 0.0625 µg/mL (≈ 0.149 µM)

## CCn1cc(C(=O)NNS(=O)(=O)c2ccc(C)cc2)c(=O)c2cc(F)c(Cl)cc21
Escherichia coli
  MIC: 0.0625 µg/mL (≈ 0.143 µM)
Salmonella typhi [1]
  Ratio: 4
Staphylococcus aureus
  MIC: 0.0625 µg/mL (≈ 0.143 µM)
Salmonella typhi [2]
  MIC: 0.0625 µg/mL (≈ 0.143 µM)
Pseudomonas aeruginosa
  MIC: 0.0625 µg/mL (≈ 0.143 µM)

From ChEMBL document CHEMBL2417444, “Synthesis and study of 1-ethyl-3-carbohydrazide and 3-[1-oxo-2-hydrazino-3-{p-toluenesulfon}]quinolone derivatives against bacterial infections” (2013)
